Reference: the NIST ThermoML archive (doi:10.1021/je8005369)
Numbers after ± are expanded uncertainties.

Details: Liquid; for mass density: Vibrating Wire Viscometer; for viscosity: Vibrating wire viscometry

CC(C)OC(C)C [diisopropyl ether]
Details | mass density [kg/m3] | viscosity [mPa·s]
243.15 K, 100 kPa | 772.385 ± 1.6 | 0.6191 ± 0.015
243.15 K, 4660 kPa | 776.195 ± 1.6 | 0.6466 ± 0.016
243.15 K, 10070 kPa | 780.42 ± 1.6 | 0.6826 ± 0.016
243.15 K, 15370 kPa | 784.377 ± 1.6 | 0.7177 ± 0.017
243.15 K, 20860 kPa | 788.392 ± 1.6 | 0.7529 ± 0.018
253.15 K, 100 kPa | 762.804 ± 1.6 | 0.5343 ± 0.013
253.15 K, 4720 kPa | 766.842 ± 1.6 | 0.5601 ± 0.014
253.15 K, 9990 kPa | 771.35 ± 1.6 | 0.5898 ± 0.014
253.15 K, 15400 kPa | 775.704 ± 1.6 | 0.6187 ± 0.015
253.15 K, 20740 kPa | 779.692 ± 1.6 | 0.65 ± 0.016
263.15 K, 100 kPa | 753.037 ± 1.6 | 0.4687 ± 0.012
263.15 K, 4470 kPa | 757.298 ± 1.6 | 0.4896 ± 0.012
263.15 K, 9490 kPa | 761.805 ± 1.6 | 0.5141 ± 0.013
263.15 K, 14490 kPa | 766.126 ± 1.6 | 0.5388 ± 0.013
263.15 K, 19640 kPa | 770.142 ± 1.6 | 0.5638 ± 0.014
273.15 K, 100 kPa | 743.309 ± 1.6 | 0.4142 ± 0.011
273.15 K, 4690 kPa | 748.026 ± 1.6 | 0.4344 ± 0.011
273.15 K, 10010 kPa | 753.179 ± 1.6 | 0.4579 ± 0.011
273.15 K, 15290 kPa | 757.99 ± 1.6 | 0.4815 ± 0.012
273.15 K, 20420 kPa | 762.359 ± 1.6 | 0.5042 ± 0.013
283.15 K, 100 kPa | 733.393 ± 1.5 | 0.3689 ± 0.0096
283.15 K, 4700 kPa | 738.525 ± 1.5 | 0.3877 ± 0.01
283.15 K, 10100 kPa | 744.147 ± 1.6 | 0.4088 ± 0.01
283.15 K, 15460 kPa | 749.321 ± 1.6 | 0.4306 ± 0.011
283.15 K, 21360 kPa | 754.612 ± 1.6 | 0.456 ± 0.011
293.15 K, 100 kPa | 723.318 ± 1.5 | 0.3311 ± 0.0088
293.15 K, 4470 kPa | 728.638 ± 1.5 | 0.3474 ± 0.0091
293.15 K, 9590 kPa | 734.393 ± 1.5 | 0.3671 ± 0.0096
293.15 K, 14750 kPa | 739.779 ± 1.5 | 0.3855 ± 0.0099
293.15 K, 20450 kPa | 745.301 ± 1.6 | 0.4079 ± 0.01
303.15 K, 100 kPa | 713.113 ± 1.5 | 0.299 ± 0.0081
303.15 K, 4440 kPa | 718.817 ± 1.5 | 0.3124 ± 0.0084
303.15 K, 9500 kPa | 725.014 ± 1.5 | 0.331 ± 0.0088
303.15 K, 14650 kPa | 730.787 ± 1.5 | 0.3496 ± 0.0092
303.15 K, 19650 kPa | 735.942 ± 1.5 | 0.3668 ± 0.0096
313.15 K, 100 kPa | 702.804 ± 1.5 | 0.2703 ± 0.0076
313.15 K, 4840 kPa | 709.502 ± 1.5 | 0.2869 ± 0.0079
313.15 K, 10140 kPa | 716.438 ± 1.5 | 0.3038 ± 0.0082
313.15 K, 15550 kPa | 722.843 ± 1.5 | 0.3213 ± 0.0086
313.15 K, 21490 kPa | 729.298 ± 1.5 | 0.3414 ± 0.009
323.15 K, 100 kPa | 692.225 ± 1.5 | 0.2468 ± 0.0071
323.15 K, 4760 kPa | 699.461 ± 1.5 | 0.2615 ± 0.0074
323.15 K, 10370 kPa | 707.408 ± 1.5 | 0.2776 ± 0.0077
323.15 K, 15480 kPa | 713.832 ± 1.5 | 0.2946 ± 0.008
323.15 K, 20780 kPa | 720.04 ± 1.5 | 0.311 ± 0.0084
333.15 K, 100 kPa | 681.435 ± 1.4 | 0.2254 ± 0.0067
333.15 K, 4750 kPa | 689.427 ± 1.5 | 0.2389 ± 0.0069
333.15 K, 10360 kPa | 697.963 ± 1.5 | 0.2554 ± 0.0073
333.15 K, 15670 kPa | 705.137 ± 1.5 | 0.2716 ± 0.0076
333.15 K, 20890 kPa | 711.63 ± 1.5 | 0.2848 ± 0.0078
343.15 K, 130 kPa | 670.401 ± 1.4 | 0.2064 ± 0.0063
343.15 K, 4390 kPa | 678.519 ± 1.4 | 0.2183 ± 0.0065
343.15 K, 9530 kPa | 687.069 ± 1.5 | 0.2335 ± 0.0068
343.15 K, 14740 kPa | 694.891 ± 1.5 | 0.2471 ± 0.0071
343.15 K, 21230 kPa | 703.496 ± 1.5 | 0.2649 ± 0.0074
353.15 K, 200 kPa | 659.151 ± 1.4 | 0.1889 ± 0.006
353.15 K, 4830 kPa | 668.72 ± 1.4 | 0.203 ± 0.0062
353.15 K, 10320 kPa | 678.629 ± 1.4 | 0.2176 ± 0.0065
353.15 K, 15760 kPa | 687.163 ± 1.4 | 0.2324 ± 0.0068
353.15 K, 21100 kPa | 694.71 ± 1.5 | 0.2466 ± 0.0071
363.15 K, 230 kPa | 647.498 ± 1.4 | 0.1736 ± 0.0057
363.15 K, 4730 kPa | 657.763 ± 1.4 | 0.1871 ± 0.006
363.15 K, 10170 kPa | 668.51 ± 1.4 | 0.2014 ± 0.0062
363.15 K, 15830 kPa | 678.192 ± 1.4 | 0.2152 ± 0.0065
363.15 K, 20860 kPa | 685.734 ± 1.4 | 0.2294 ± 0.0067
373.15 K, 310 kPa | 635.452 ± 1.4 | 0.1602 ± 0.0055
373.15 K, 4730 kPa | 646.883 ± 1.4 | 0.1721 ± 0.0057
373.15 K, 9630 kPa | 657.52 ± 1.4 | 0.1854 ± 0.0059
373.15 K, 15600 kPa | 668.559 ± 1.4 | 0.2008 ± 0.0062
373.15 K, 21680 kPa | 678.358 ± 1.4 | 0.2152 ± 0.0065
